The source of these data is ChEMBL document CHEMBL3507680, “University of Dundee, Gates Library screen for HepG2 cell viability”.

This series can be described thus: Human HepG2 cell viability assay in 384 well format. It is filed as toxicity, cell-based. The arrangement: dose 125 nL, time 70.5 hour; cytotoxicity at 70.5 h: concentration not given beside the values. Conditions: HepG2 cells, read-out: Inhibition.
For the molecule `Cc1nccn1CCN(C)C(=O)C1CCCN(C2CCOCC2)C1` (centres undefined), the cytotoxicity at 70.5 h was -4.07%.
As for `Cc1cc(N[C@H](CO)c2ccccc2)n2nc(C)cc2n1`, the figure is -1.18%.
On to `O=C(c1cnccn1)N1CCCC2(CCN(Cc3ccsc3)CC2)C1`, for which the cytotoxicity at 70.5 h amounted to 3.52%.
`COc1ccccc1CCNC(=O)N(C)C(C)CS(C)(=O)=O` (centres undefined): the cytotoxicity at 70.5 h turned out to be 24.3%.
`CCc1ccc(S(=O)(=O)Nc2cnc(N3CCOCC3)nc2)cc1`: the cytotoxicity at 70.5 h is -2.95%.
The result for `CNC(=O)NCC(=O)Nc1ccccc1N1CCc2ccccc21` reads -3.43%; that for `Cc1nc(CN(C)C(=O)C2CCC(=O)N(CCN(C)C)C2)cs1` (centres undefined), 11.1%; that for `CCOCC(=O)N1C[C@@H]2CC[C@H](Oc3ccccc3)[C@@H]2C1`, -3.41%.
The result for `COc1ccc(NC(=O)Cn2nc(C)c(C)cc2=O)cc1OC` reads 12.7%; that for `CCn1cc(CN2CCCC(c3[nH]ncc3S(C)(=O)=O)C2)cn1` (centres undefined), 1.9%.
As for `CN1CCCC1CNC(=O)CCCOc1ccc(I)cc1` (centres undefined), the figure is -0.485%.
As for `Cc1noc(C)c1CCC(=O)NC(C)c1nnc2n1CCC2` (centres undefined), the cytotoxicity at 70.5 h worked out at 8.52%.
The result for `COc1cc(CNc2cnn(CC(F)F)c2)ccc1O` reads 26.6%; that for `O=C(CCc1cncc(F)c1)NS(=O)(=O)c1ccc(F)cc1F`, 8.87%; that for `CC(C)CN1CCNC(=O)C12CCN(S(=O)(=O)c1ccc(F)cc1)CC2`, -3.61%.
The result for `CC(C)(C)NC(=O)C[C@@H]1CCNC[C@@H]1Cc1cc(C(C)(C)C)on1` reads -1.48%; that for `CCc1nc(CN2CCCN(c3nccs3)CC2)no1`, 6.55%.
As for `CCOC1CCCN(C(=O)c2nn(-c3ccccc3F)cc2O)C1` (centres undefined), the figure is -3.95%; as for `CCn1nc(C)c2nnn(CC(=O)Nc3c(C)cccc3C)c(=O)c21`, 27.9%.
Regarding `COc1ccc2c(ccn2CCC(=O)Nc2n[nH]c(CC(C)C)n2)c1`, the cytotoxicity at 70.5 h is 24%.
The result for `Cc1nccc(-c2cccc(NCC(=O)NCC(=O)N3CCCC3)c2)n1` reads -3.17%; that for `COCCN1CCc2ncnc(N(C)C)c2CC1`, -10.9%.
As for `Cc1ccc(N(C)[C@@H]2CC[C@@H]3CN(C(=O)CC4CCOCC4)C[C@@H]32)nn1`, the figure is -7.61%.
Consider `CCOCCCNC(=O)c1cc(C(C)C)nc(N2CCCCCC2)n1`, for which the cytotoxicity at 70.5 h was 26.5%.
The result for `Cc1ncc(CNC(=O)c2oc3ccccc3c2CN(C)C)s1` reads -8.45%; that for `Cc1nc([C@@H]2C[C@@H]3CCN(Cc4cnn(C)c4)C[C@H]3O2)sc1C`, -5.41%.
Take `CCn1c(CN(C)C(=O)c2ccc(N(C)C)nc2)nc2ccccc21`: the cytotoxicity at 70.5 h is -14%.
The result for `CC(C)(CO)CCCNC(=O)NC1(C)Cc2ccccc2C1` reads -0.326%; that for `Cc1nc(CNC(=O)Cn2nc(-c3ccc(F)cc3)oc2=O)cs1`, 0.339%.
As for `Cc1cc(CNC(=O)CN2CCN(C(=O)OC(C)(C)C)CC2)ccc1F`, the figure is 13.3%; as for `Cn1cc(NS(=O)(=O)c2ccc(F)c(F)c2)ccc1=O`, -7.99%.
The result for `COCc1nn(C(C)C)c2c1CCN(Cc1ccccn1)C2` reads -3.77%; that for `Cc1cnccc1CN(C)Cc1c[nH]nc1-c1ccc(F)cc1F`, 3.5%; that for `COc1ccc(CNCCc2cc(F)cc3c2OCOC3)cc1OC`, 2.03%.
On to `CCOCc1cccc(NC(=O)C2COCCO2)c1` (centres undefined), for which the cytotoxicity at 70.5 h was -7.73%.
The result for `CC(C)C(NC(=O)C1CCCC1)c1cc(O)nc(-c2cccnc2)n1` (centres undefined) reads 11%; that for `Cc1cnc2n(c1=O)CC(C(=O)Nc1ccccc1Cl)CS2` (centres undefined), -5%; that for `Cn1cc2ncn([C@H]3CCN(Cc4ccccc4)C3)c(=O)c2n1`, -6.58%.
As to `CNc1cc(C)nc(-c2cc(NC)nc3[nH]ccc23)n1`, the cytotoxicity at 70.5 h is -8.84%.
Take `FC(F)(F)c1cccc(CNc2nccc(C(F)(F)F)n2)c1`: the cytotoxicity at 70.5 h is -3.61%.
In the case of `Cn1ccnc1CN1CCCC(CCCc2ccccn2)(C(N)=O)C1` (centres undefined), the cytotoxicity at 70.5 h is -4.1%.
The result for `CSCc1nc(CCNC(=O)C2CCCN(C(C)=O)C2)cs1` (centres undefined) reads -2.37%; that for `CCc1nnc2n1CCN(CC(=O)Nc1sccc1C#N)C2`, -9.93%.
As for `CC1(C(=O)Nc2ccc(F)c(-n3cccc3)c2)CCOCC1`, the figure is -6.66%; as for `CCn1c(C)nnc1CN(C)C1CCN(Cc2nccn2C)C1` (centres undefined), 3.01%; as for `O=C(CC1CCCO1)NCc1ccc(Br)cc1F` (centres undefined), -5.9%.
In the case of `CCNC(=O)[C@@H]1C[C@@H](NC(=O)c2ccc(C)cc2O)CN1CCCSC`, the cytotoxicity at 70.5 h was -3.38%.
As for `Cc1nc(CN2CCCC2c2nc(C(C)C)no2)cs1` (centres undefined), the figure is -2.96%; as for `CCN(C)C[C@@H]1CN(C(=O)NC2CCCCC2)C[C@@H]1CO`, -10.1%; as for `Cc1ccc(Cl)c(C)c1NC(=O)N1CCCN(Cc2ccccn2)CC1`, 2.01%.
Take `Cc1ccc(N2CCC3(CN(Cc4ccncc4)CCC3(F)F)C2)nn1` (centres undefined): the cytotoxicity at 70.5 h is -1.36%.
On to `CC(c1cc(F)ccc1F)N(C)CCS(=O)(=O)CCC(N)=O` (centres undefined), for which the cytotoxicity at 70.5 h was -8.99%.
`NC(=O)c1cc(C2CCCN(CCOCC3CC3)C2)n[nH]1` (centres undefined): the cytotoxicity at 70.5 h was -1.45%.
As for `COCCN(CCOC)S(=O)(=O)N(C)Cc1ccncc1`, the figure is 19.1%; as for `CCCC(NC(=O)c1ccc(OC)cc1F)c1nnn[nH]1` (centres undefined), -3.7%; as for `CS(=O)(=O)N1CCN(C(=O)Cn2ccc3c(Cl)cccc32)CC1`, 8.68%.
`Cc1cc(C)n(CCCN(CCN2CCOCC2)Cc2ccco2)n1`: the cytotoxicity at 70.5 h is -4.4%.
The result for `Cc1cnn(CC2CCCCN2Cc2nccn2CC(F)(F)F)c1` (centres undefined) reads 4.47%; that for `Cc1ccc(-c2nc3cc(S(=O)(=O)N4CCCC4)ccc3n2C)o1`, -11.7%.
The result for `Cc1cc(C)n(CC2CN(CCOc3ccccc3C#N)CCO2)n1` (centres undefined) reads -5.02%; that for `CCc1ocnc1C(=O)N1CCC2(CC1)OCC(C)O2` (centres undefined), -5.57%.
As for `CN(c1c(F)cccc1F)S(=O)(=O)c1cc2c(c(C(=O)O)c1)OCCO2`, the cytotoxicity at 70.5 h was 9.94%.
As for `Fc1cc(CN2CCOC3(CCOCC3)C2)ccc1OC(F)F`, the figure is -3.49%; as for `Cc1csc(N2CCN(C(=O)c3cc(Cl)c[nH]3)CC2)n1`, -0.933%.
The result for `CC[C@H](C)[C@H](N)C(=O)Nc1nc(-c2cnc(N(C)C)nc2)cs1` reads -0.629%; that for `CCc1nc(C2CCCN2Cc2nc(Cc3ccccc3)no2)no1` (centres undefined), -0.88%; that for `CCCS(=O)(=O)N1Cc2nccn2CC(Cn2cncn2)C1` (centres undefined), 20.3%.
As for `CC1CN(c2ncnc3c2cnn3C)CCN1c1nccs1` (centres undefined), the figure is -4.86%.
Regarding `CC(C)c1nnc(NC(=O)N2CCCC2c2ccncc2)s1` (centres undefined), the cytotoxicity at 70.5 h is 20%.
For `c1ccn(Cc2nnc3n2CCCN(Cc2ccoc2)C3)c1`, the cytotoxicity at 70.5 h is 6.46%.
Take `COCC(=O)N1CCN(Cc2nnc(C(C)(C)C)o2)CC1`: the cytotoxicity at 70.5 h was -1.83%.
Take `CCOC1CCN(C(=O)NCCN(C)C(=O)OC(C)(C)C)CC1`: the cytotoxicity at 70.5 h was -3.79%.
The result for `CS(=O)(=O)c1ccccc1C(=O)NCCCN1CCc2ccccc2C1` reads 18.5%.
With `Cc1nc(CN(C)C2CCN(CC(=O)N3CCOCC3)C2)no1` (centres undefined), the cytotoxicity at 70.5 h was -12.6%.
Turning to `COCc1cc(CNC(=O)c2cccc3c2OCC3)n[nH]1`, the cytotoxicity at 70.5 h is -5.24%.
As for `Cc1nc(C)c(CCNC(Cc2ccncc2)C(F)(F)F)s1` (centres undefined), the cytotoxicity at 70.5 h was found to be 2.53%.
`Cn1nc(C2CCCN(Cc3cccc(F)c3)C2)c2nccnc21` (centres undefined): the cytotoxicity at 70.5 h is -4.33%.
As for `Cc1ccc(S(C)(=O)=O)cc1C(=O)NS(=O)(=O)c1ccc(Cl)cc1`, the figure is -4.48%; as for `Fc1cnc(N2CC[C@@H](N3CCOCC3)[C@@H]2Cc2ccccc2)nc1`, 8.96%; as for `CCc1[nH]c2c(CNc3nccc(N)n3)cc(F)cc2c1C`, 16.1%.
As for `CCC(CC)C(O)CNC(=O)Nc1cccc(-c2nccn2C)c1` (centres undefined), the figure is -3.63%; as for `Cc1nn(C)c(Cl)c1C1CCCN1Cc1noc(C2CC2)n1` (centres undefined), -9.55%.
Turning to `O=C(c1cc(-n2cnnn2)ccc1Cl)N1CCC2(CC1)OCCO2`, the cytotoxicity at 70.5 h was -7.22%.
The result for `O=C(C1CC1)N1CCC[C@]2(C[C@@H](OCc3ccncc3)CO2)C1` reads 0.889%; that for `OC(CNCc1nnc2ccccn12)c1ccc2c(c1)OCCCO2` (centres undefined), -8.23%; that for `COCCCNC(=O)CN(C)C(=O)c1cc2cc(C)ccc2nc1C`, 3.78%.
For `Cn1nc(CN2CCCC2)c2c1CN(CC1CC1)CC2`, the cytotoxicity at 70.5 h amounted to 2.77%.
As for `O=C(CO)N1CCCC2(CCC(=O)N(CC3CC3)C2)C1` (centres undefined), the figure is -11%; as for `CC(C)CN1CC2(CCN(C(=O)C3CSC(C)(C)C(=O)N3)CC2)CC1=O` (centres undefined), -1.86%; as for `Cc1nsc(N2CCN(C(=O)Nc3ccc4[nH]ccc4c3)CC2)n1`, 1.81%.
The result for `Cc1cnn(CC2CN(Cc3nnc(C(C)C)o3)CCO2)c1` (centres undefined) reads -6.07%; that for `Cc1cn(Cc2ccc(F)cc2)nc1N`, -1.4%; that for `CN(C)CCn1c2c(ccc1=O)CC(NC(=O)c1cnccn1)CC2` (centres undefined), -10.4%.
For the molecule `CCOC(=O)N1CCC(NC(C)c2ccccc2-n2cccn2)CC1` (centres undefined), the cytotoxicity at 70.5 h came to 35.4%.
For `O=C(c1cc2ccccc2c(=O)[nH]1)N1CCN(CCO)CC1`, the cytotoxicity at 70.5 h is -4.06%.
The result for `CN(CCCc1nccn1C)C(=O)C1CCN(C(=O)C2CC2)CC1` reads 0.477%.
The result for `CCn1c(C)nnc1SCCNc1nc(C)nc2c1cnn2C` reads -9.87%; that for `CC(C)N1CCCC(CNC(=O)CN(C)S(=O)(=O)c2ccccc2)C1` (centres undefined), -5.65%.
Consider `COc1ccc(CN2CCCC3(CCN(c4ccsc4)C3=O)C2)cc1` (centres undefined), for which the cytotoxicity at 70.5 h came out at 2.29%.
